From patent US20220362273A1 (priority 2021, published 2022)

Tests used:
Settings in all cases: mouse, in vivo
[1] = system: skin exposed to nitrogen mustard (NM); design: species or system C57Bl/6 mice
[2] = system: NM-challenged skin; design: species or system mice
[3] = system: mice challenged with topical nitrogen mustard (NM)
[4] = system: iNOS; design: species or system mice

Compound	skin thickness by bi-fold caliper measurements [1]	inflammatory cells in skin [2]	skin thickness [2]	lesion area at day 5 [3]	lesion size [3]	systemic toxicity [3]	iNOS levels (relative iNOS gene expression) [4]
CC(=O)S[C@@H]1CC2=CC(=O)CC[C@]2(C)[C@H]2CC[C@@]3(C)[C@@H](CC[C@@]34CCC(=O)O4)[C@H]12 [spironolactone]	showed efficacy in reducing skin thickness	significant reduction	decrease in thickness	reduce lesion area	dose dependent reduction	sustained systemic toxicity	
C=C1CC[C@H](O)C/C1=C/C=C1\CCC[C@]2(C)[C@@H]([C@H](C)CCCC(C)(C)O)CC[C@@H]12 [25(OH)D, 25-hydroxyvitamin D3]							responded
